Reference: patent US6472530B1, “Benzo-fused dithiepino[6,5-b]pyridines, and related compositions and methods” (Ortho-McNeil Pharmaceutical, Inc., priority 1999, dated 2002)

Biological target: T1, calcium channel (Oryctolagus cuniculus, UniProt P15381)
T1 construct: from tissue; host or cells: rabbit heart membrane preparation
Assay: Assay for Inhibition of Nitrendipine Binding (3H-nitrendipine, heart membranes)
Parameters: species or system rabbit
Settings: Table 1, compounds of Formula I; 3H-nitrendipine displacement, rabbit heart membranes; read-out: Nitrendipine Binding Assay IC50
Protocol: Assay for Inhibition of Nitrendipine Binding
Female, New Zealand white rabbits (1-2 kg) are sacrificed by cervical dislocation, and the heart is immediately removed, cleaned and chopped into small pieces. The tissue is homogenized in 5×times volume of 0.05M Hepes buffer, pH 7.4. The homogenate is centrifuged at 4000 g for 10 minutes, and the supernatant is re-centrifuged at 42,000×g for 90 minutes. The resulting membrane pellet is resuspended (0.7 ml/g weight) in 0.05M Hepes, pH 7.4 and stored at […] until used. Each tube of the binding assay contains ^3H-nitrendipine (0.05-0.50 nM), buffer, membranes (0.10 ml), and test compound in a total volume of 1.0 ml. After 90 minutes at 4° C., the bound nitrendipine is separated from the unbound by filtration on Whatman GF/C filters. After rinsing, the filters are dried and counted in a liquid scintillation counter.
Non-specific binding of ^3H-nitrendipine (that amount bound in the presence of excess unlabelled nitrendipine) is subtracted from the total bound to obtain specifically bound radiolabeled nitrendipine. The amount of specifically bound nitrendipine in the presence of a test compound is compared to that amount bound in the absence of a compound. A percent displacement (or inhibition) can then be calculated.

T1 sequence (P15381 whole entry, other chains not shown): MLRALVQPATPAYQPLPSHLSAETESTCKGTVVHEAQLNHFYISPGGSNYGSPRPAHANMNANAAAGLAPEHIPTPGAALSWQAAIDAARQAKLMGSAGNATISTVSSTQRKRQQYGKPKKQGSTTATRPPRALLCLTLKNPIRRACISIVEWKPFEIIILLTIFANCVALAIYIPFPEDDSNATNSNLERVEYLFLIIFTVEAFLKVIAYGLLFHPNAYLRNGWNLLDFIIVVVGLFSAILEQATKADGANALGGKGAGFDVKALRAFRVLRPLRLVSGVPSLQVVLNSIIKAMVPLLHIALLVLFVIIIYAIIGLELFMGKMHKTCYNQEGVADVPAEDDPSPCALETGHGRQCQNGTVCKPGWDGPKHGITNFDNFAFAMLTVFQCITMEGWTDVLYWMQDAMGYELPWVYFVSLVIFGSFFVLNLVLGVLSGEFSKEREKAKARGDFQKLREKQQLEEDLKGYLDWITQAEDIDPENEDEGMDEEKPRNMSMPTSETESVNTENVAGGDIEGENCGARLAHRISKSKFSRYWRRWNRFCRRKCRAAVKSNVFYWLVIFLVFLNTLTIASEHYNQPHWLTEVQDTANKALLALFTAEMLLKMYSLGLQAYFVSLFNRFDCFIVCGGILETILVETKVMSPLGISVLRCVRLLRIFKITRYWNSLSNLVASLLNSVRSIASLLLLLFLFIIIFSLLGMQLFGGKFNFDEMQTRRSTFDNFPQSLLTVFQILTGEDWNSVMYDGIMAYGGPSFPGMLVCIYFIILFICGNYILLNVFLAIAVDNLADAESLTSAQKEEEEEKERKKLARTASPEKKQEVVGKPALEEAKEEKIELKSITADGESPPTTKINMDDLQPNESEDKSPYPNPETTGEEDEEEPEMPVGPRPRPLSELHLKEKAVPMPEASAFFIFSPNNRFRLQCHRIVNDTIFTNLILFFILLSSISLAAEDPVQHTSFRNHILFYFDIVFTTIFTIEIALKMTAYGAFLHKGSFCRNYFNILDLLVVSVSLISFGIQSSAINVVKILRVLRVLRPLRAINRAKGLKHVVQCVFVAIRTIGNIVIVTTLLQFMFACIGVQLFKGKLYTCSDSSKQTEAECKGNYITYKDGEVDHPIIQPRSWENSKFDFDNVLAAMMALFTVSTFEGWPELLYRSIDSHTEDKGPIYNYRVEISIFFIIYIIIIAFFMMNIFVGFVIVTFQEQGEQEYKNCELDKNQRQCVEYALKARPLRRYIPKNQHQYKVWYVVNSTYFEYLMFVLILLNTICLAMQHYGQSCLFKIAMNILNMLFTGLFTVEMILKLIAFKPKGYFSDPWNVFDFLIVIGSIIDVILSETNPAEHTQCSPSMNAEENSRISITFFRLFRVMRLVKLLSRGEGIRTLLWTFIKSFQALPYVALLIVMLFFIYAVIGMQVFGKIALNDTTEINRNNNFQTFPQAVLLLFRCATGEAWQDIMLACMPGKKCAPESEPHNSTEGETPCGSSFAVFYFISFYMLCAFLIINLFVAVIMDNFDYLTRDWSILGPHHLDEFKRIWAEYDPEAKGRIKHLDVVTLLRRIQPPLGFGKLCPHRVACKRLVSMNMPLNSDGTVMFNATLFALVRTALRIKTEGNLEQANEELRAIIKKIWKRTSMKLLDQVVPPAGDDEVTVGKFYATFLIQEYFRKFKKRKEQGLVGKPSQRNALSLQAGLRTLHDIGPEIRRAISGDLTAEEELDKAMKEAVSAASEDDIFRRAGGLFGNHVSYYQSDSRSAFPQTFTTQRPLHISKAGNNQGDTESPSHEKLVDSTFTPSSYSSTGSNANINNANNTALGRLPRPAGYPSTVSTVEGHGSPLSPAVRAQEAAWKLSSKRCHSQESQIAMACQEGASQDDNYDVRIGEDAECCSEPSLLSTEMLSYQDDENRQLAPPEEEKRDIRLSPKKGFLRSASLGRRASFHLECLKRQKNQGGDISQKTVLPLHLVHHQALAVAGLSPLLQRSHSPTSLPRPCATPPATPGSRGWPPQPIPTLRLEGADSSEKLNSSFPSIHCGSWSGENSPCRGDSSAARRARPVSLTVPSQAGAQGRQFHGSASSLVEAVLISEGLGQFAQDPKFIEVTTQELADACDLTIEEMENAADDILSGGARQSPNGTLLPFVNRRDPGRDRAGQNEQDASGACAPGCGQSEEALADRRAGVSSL
T1 sequence (P13806 27-960 partner limits assumed, other chains not shown): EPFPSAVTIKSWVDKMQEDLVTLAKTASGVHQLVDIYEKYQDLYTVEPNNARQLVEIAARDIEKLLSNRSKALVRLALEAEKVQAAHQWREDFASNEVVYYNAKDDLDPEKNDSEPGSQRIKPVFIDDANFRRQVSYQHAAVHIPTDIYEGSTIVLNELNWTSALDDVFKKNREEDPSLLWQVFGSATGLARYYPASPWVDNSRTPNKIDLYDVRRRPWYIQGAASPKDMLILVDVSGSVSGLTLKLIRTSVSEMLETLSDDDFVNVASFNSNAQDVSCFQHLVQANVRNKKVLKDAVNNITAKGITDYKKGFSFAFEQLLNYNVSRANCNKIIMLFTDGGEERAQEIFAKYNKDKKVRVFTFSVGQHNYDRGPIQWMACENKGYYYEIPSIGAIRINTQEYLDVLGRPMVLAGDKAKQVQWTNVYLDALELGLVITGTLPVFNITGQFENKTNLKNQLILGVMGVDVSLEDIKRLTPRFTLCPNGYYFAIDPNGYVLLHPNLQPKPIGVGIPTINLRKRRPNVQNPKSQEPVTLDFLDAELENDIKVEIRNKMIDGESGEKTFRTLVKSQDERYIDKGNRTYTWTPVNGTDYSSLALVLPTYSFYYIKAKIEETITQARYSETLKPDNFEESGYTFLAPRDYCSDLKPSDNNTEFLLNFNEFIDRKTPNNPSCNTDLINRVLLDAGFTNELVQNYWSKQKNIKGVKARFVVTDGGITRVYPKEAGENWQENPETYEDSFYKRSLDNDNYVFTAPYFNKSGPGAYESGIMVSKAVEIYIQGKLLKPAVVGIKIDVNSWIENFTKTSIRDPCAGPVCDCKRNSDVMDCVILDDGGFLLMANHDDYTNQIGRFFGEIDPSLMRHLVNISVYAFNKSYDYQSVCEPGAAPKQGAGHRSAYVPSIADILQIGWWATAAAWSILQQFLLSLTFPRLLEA
T1 sequence (P13806 961-1106 partner limits assumed, other chains not shown): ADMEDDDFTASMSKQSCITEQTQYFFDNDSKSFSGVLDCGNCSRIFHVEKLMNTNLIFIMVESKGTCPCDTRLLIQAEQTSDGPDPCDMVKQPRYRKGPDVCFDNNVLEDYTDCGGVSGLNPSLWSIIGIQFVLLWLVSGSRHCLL

| IC50 | SMILES |
| --- | --- |
| 18 nM | CC1=C(C(=O)OCCN(C)Cc2ccccc2)C(c2ccccc2Cl)C2=C(CS(=O)(=O)c3ccccc3S2(=O)=O)N1 (stereo not shown) [Compound 19, 1H-[1,5]Benzodithiepino[3,2-b]pyridine-3-carboxylic acid, 4-(2-chlorophenyl)-4,11-dihydro-2-methyl, 2-[methyl(phenylmethyl)amino]ethyl ester, 5,5,10,10-tetraoxide] |
| 20 nM | COC(=O)C1=C(C)NC2=C(C1c1cccc(Cl)c1)S(=O)(=O)c1ccccc1[S+]([O-])C2 (stereo not shown) [Compound 6, 1H-[1,5]Benzodithiepino[3,2-b]pyridine-3-carboxylic acid, 4-(3-chlorophenyl)-4,11-dihydro-2-methyl, methyl ester, 5,5,10-trioxide] |
| 8 nM | COC(=O)C1=C(C)NC2=C(C1c1cccc(Cl)c1Cl)S(=O)(=O)c1ccccc1[S+]([O-])C2 (stereo not shown) [Compound 7, 1H-[1,5]Benzodithiepino[3,2-b]pyridine-3-carboxylic acid, 4-(2,3-dichlorophenyl)-4,11-dihydro-2-methyl, methyl ester, 5,5,10-trioxide] |
| 23 nM | CC1=C(C(=O)OCCN(C)Cc2ccccc2)C(c2ccccc2Cl)C2=C(C[S+]([O-])c3ccccc3S2(=O)=O)N1 (stereo not shown) [Compound 18, 1H-[1,5]Benzodithiepino[3,2-b]pyridine-3-carboxylic acid, 4-(2-chlorophenyl)-4,11-dihydro-2-methyl, 2-[methyl(phenylmethyl)amino]ethyl ester, 5,5,10-trioxide] |
| 36 nM | COC(=O)C1=C(C)NC2=C(C1c1ccccc1[N+](=O)[O-])S(=O)(=O)c1ccccc1S(=O)(=O)C2 (stereo not shown) [Compound 10] |
| 62 nM | CC1=C(C(=O)OCCN(C)Cc2ccccc2)C(c2c(F)cccc2Cl)C2=C(CS(=O)(=O)c3ccccc3S2(=O)=O)N1 (stereo not shown) [Compound 17, 1H-[1,5]Benzodithiepino[3,2-b]pyridine-3-carboxylic acid, 4-(2-chloro-6-fluorophenyl)-4,11-dihydro-2-methyl, 2-[methyl(phenylmethyl)amino]ethyl ester, 5,5,10,10-tetraoxide] |
| 22 nM | COC(=O)C1=C(C)NC2=C(C1c1cccc(Cl)c1Cl)S(=O)(=O)c1ccccc1S(=O)(=O)C2 (stereo not shown) [Compound 8, 1H-[1,5]Benzodithiepino[3,2-b]pyridine-3-carboxylic acid, 4-(2,3-dichlorophenyl)-4,11-dihydro-2-methyl, methyl ester, 5,5,10,10-tetraoxide] |
| 10 nM | COC(=O)C1=C(C)NC2=C(C1c1cccc(Cl)c1)S(=O)(=O)c1ccccc1S(=O)(=O)C2 (stereo not shown) [Compound 9, 1H-[1,5]Benzodithiepino[3,2-b]pyridine-3-carboxylic acid, 4-(3-chlorophenyl)-4,11-dihydro-2-methyl, methyl ester, 5,5,10,10-tetraoxide] |
| 14 nM | COC(=O)C1=C(C)NC2=C(C1c1ccccc1Cl)S(=O)(=O)c1ccccc1[S+]([O-])C2 (stereo not shown) [Compound 1, 1H-[1,5]Benzodithiepino[3,2-b]pyridine-3-carboxylic acid, 4-(2-chlorophenyl)-4,11-dihydro-2-methyl, methyl ester, 5,5,10-trioxide] |
| 20 nM | COC(=O)C1=C(C)NC2=C(C1c1cccc([N+](=O)[O-])c1)S(=O)(=O)c1ccccc1S(=O)(=O)C2 (stereo not shown) [Compound 15, 1H-[1,5]Benzodithiepino[3,2-b]pyridine-3-carboxylic acid, 4,11-dihydro-2-methyl-4-(3-nitrophenyl), methyl ester, 5,5,10,10-tetraoxide] |
| 58 nM | CC1=C(C(=O)OCCN(C)Cc2ccccc2)C(c2cccc(C(F)(F)F)c2F)C2=C(CS(=O)(=O)c3ccccc3S2(=O)=O)N1 (stereo not shown) [Compound 14, 1H-[1,5]Benzodithiepino[3,2-b]pyridine-3-carboxylic acid, 4-[2-fluoro-3-(trifluoromethyl)phenyl]-4,11-dihydro-2-methyl, 2-[methyl(phenylmethyl)-amino]ethyl ester, 5,5,10,10-tetraoxide] |
| 34 nM | CC1=C(C(=O)OCCN(C)Cc2ccccc2)C(c2ccccc2[N+](=O)[O-])C2=C(CS(=O)(=O)c3ccccc3S2(=O)=O)N1 (stereo not shown) [Compound 3, 1H-[1,5]Benzodithiepino[3,2-b]pyridine-3-carboxylic acid, 4,11-dihydro-2-methyl-4-(2-nitrophenyl), 2-[methyl(phenylmethyl)amino]ethyl ester, 5,5,10,10-tetraoxide] |
| 22 nM | CC1=C(C(=O)OCCN(C)Cc2ccccc2)C(c2cccc(Cl)c2)C2=C(CS(=O)(=O)c3ccccc3S2(=O)=O)N1 (stereo not shown) [Compound 4, 1H-[1,5]Benzodithiepino[3,2-b]pyridine-3-carboxylic acid, 4-(3-chlorophenyl)-4,11-dihydro-2-methyl, 2-[methyl(phenylmethyl)amino]ethyl ester, 5,5,10,10-tetraoxide] |
| 24 nM | CC1=C(C(=O)OCCN(C)Cc2ccccc2)C(c2cccc([N+](=O)[O-])c2)C2=C(CS(=O)(=O)c3ccccc3S2(=O)=O)N1 (stereo not shown) [Compound 16, 1H-[1,5]Benzodithiepino[3,2-b]pyridine-3-carboxylic acid, 4,11-dihydro-2-methyl-4-(3-nitrophenyl), 2-[methyl(phenylmethyl)amino]ethyl ester, 5,5,10,10-tetraoxide] |
| 20 nM | CC1=C(C(=O)OCCN(C)Cc2ccccc2)C(c2cccc(Cl)c2Cl)C2=C(CS(=O)(=O)c3ccccc3S2(=O)=O)N1 (stereo not shown) [Compound 2, 1H-[1,5]Benzodithiepino[3,2-b]pyridine-3-carboxylic acid, 4-(2,3-dichlorophenyl)-4,11-dihydro-2-methyl, 2-[methyl(phenylmethyl)amino]ethyl ester, 5,5,10,10-tetraoxide] |

Same assay, conditions: Table 2, compounds of Formula II; 3H-nitrendipine displacement, rabbit heart membranes; read-out: Nitrendipine Binding IC50

| IC50 | SMILES |
| --- | --- |
| 6070 nM | CC1=C(C(=O)OCCO)C(c2c(F)cccc2Cl)C2=C(CS(=O)(=O)c3ccccc3S2(=O)=O)N1 (stereo not shown) [Compound 21] |
| 420 nM | CC1=C(C(=O)OCCNC(=O)OC(C)(C)C)C(c2c(F)cccc2Cl)C2=C(CS(=O)(=O)c3ccccc3S2(=O)=O)N1 (stereo not shown) [Compound 25, 1H-[1,5]benzodithiepino[3,2-b]pyridine-3-carboxylic acid, 4-(2-chloro-6-fluorophenyl)-4,11-dihydro-2-methyl-, 2-[[(1,1-dimethylethoxy)carbonyl]amino]ethyl ester, 5,5,10,10-tetraoxide] |
| 116000 nM | CC1=C(C(=O)OCCOC(=O)CCCCCCCCCc2ccccc2)C(c2c(F)cccc2Cl)C2=C(CS(=O)(=O)c3ccccc3S2(=O)=O)N1 (stereo not shown) [Compound 36] |
| 188 nM | CC1=C(C(=O)OCCCOC(=O)c2ccccc2)C(c2c(F)cccc2Cl)C2=C(CS(=O)(=O)c3ccccc3S2(=O)=O)N1 (stereo not shown) [Compound 34] |
| 618 nM | CC1=C(C(=O)OCCOC(=O)C(C)c2ccc(CC(C)C)cc2)C(c2c(F)cccc2Cl)C2=C(CS(=O)(=O)c3ccccc3S2(=O)=O)N1 (stereo not shown) [Compound 32] |
| 101 nM | CC1=C(C(=O)OCCOC(=O)/C=C/c2ccccc2)C(c2c(F)cccc2Cl)C2=C(CS(=O)(=O)c3ccccc3S2(=O)=O)N1 (stereo not shown) [Compound 37, 1H-[1,5]benzodithiepino[3,2-b]pyridine-3-carboxylic acid, 4-(2-chloro-6-fluorophenyl)-4,11-dihydro-2-methyl-, 2-[[(2E)-1-oxo-3-phenyl-2-propenyl]oxy]ethyl ester, 5,5,10,10-tetraoxide] |
| 60 nM | CC1=C(C(=O)OCCOC(=O)CCCCCCc2ccccc2)C(c2c(F)cccc2Cl)C2=C(CS(=O)(=O)c3ccccc3S2(=O)=O)N1 (stereo not shown) [Compound 35] |
| 1440 nM | CC1=C(C(=O)OCCCO)C(c2c(F)cccc2Cl)C2=C(CS(=O)(=O)c3ccccc3S2(=O)=O)N1 (stereo not shown) [Compound 33] |
| 306 nM | CC1=C(C(=O)OCCO)C(c2c(F)cccc2Cl)C2=C(C[S+]([O-])c3ccccc3S2(=O)=O)N1 (stereo not shown) [Compound 20] |
| 2000 nM | CC1=C(C(=O)OCCN)C(c2c(F)cccc2Cl)C2=C(CS(=O)(=O)c3ccccc3S2(=O)=O)N1 (stereo not shown) [Compound 26, 1H-[1,5]benzodithiepino[3,2-b]pyridine-3-carboxylic acid, 4-(2-chloro-6-fluorophenyl)-4,11-dihydro-2-methyl-, 2-aminoethyl ester, 5,5,10,10-tetraoxide] |
| 370 nM | CC1=C(C(=O)OCCOC(=O)C(C)(C)C)C(c2c(F)cccc2Cl)C2=C(CS(=O)(=O)c3ccccc3S2(=O)=O)N1 (stereo not shown) [Compound 28, 1H-[1,5]benzodithiepino[3,2-b]pyridine-3-carboxylic acid, 4-(2-chloro-6-fluorophenyl)-4,11-dihydro-2-methyl-, 2-(2,2-dimethyl-1-oxopropoxy)ethyl ester, 5,5,10,10-tetraoxide] |
| 209 nM | COc1ccc2cc([C@H](C)C(=O)OCCOC(=O)C3=C(C)NC4=C(C3c3c(F)cccc3Cl)S(=O)(=O)c3ccccc3S(=O)(=O)C4)ccc2c1 (stereo partly drawn) [Compound 31, 1H-[1,5]benzodithiepino[3,2-b]pyridine-3-carboxylic acid, 4-(2-chloro-6-fluorophenyl)-4,11-dihydro-2-methyl-, 2-[[(2S)-2-(6-methoxy-2-naphthalenyl)-1-oxopropyl]oxy]ethyl ester, 5,5,10,10-tetraoxide] |
| 26 nM | CC1=C(C(=O)OCCOC(=O)C(C)C)C(c2c(F)cccc2Cl)C2=C(CS(=O)(=O)c3ccccc3S2(=O)=O)N1 (stereo not shown) [Compound 27] |
